Reference: US6773702B2, “Use of combretastatin A4 and its prodrugs as an immune enhancing therapy” (OXiGENE, Inc., priority 2000, dated 2004)
Values joined by “and” are separate entries in the source; they are usually repeats but may differ in a detail not shown here. Equal values may be shown once.

How the values were obtained:
[1] = test system: BN7005-H1D2 colon cancer cells; assay: Comparison of CA4 and CA4P on BN7005-H1D2 tumor growth, alone or with vaccination (FIG. 5); assay type: in vivo, rat
Description: FIGS. 5A AND 5B illustrate a comparison of the therapeutic effect of Combretastatin A4 and Combretastatin A4 Prodrug (2 mg/kg) on tumor growth (BN7005-H1D2) in vivo as a sole therapy or in combination with therapeutic vaccination (IL-18 tumor transfectants). Results are represented as mean tumor volume (FIG. 5A) or as median tumor volume (FIG. 5B) 31 days after tumor initiation.
A comparison was also made of relative effect of CA4 and CA4P administration in vivo with regard to tumor inhibitory effects when used as sole therapy and when combined with immunomodulatory gene therapy. […] A subset of these animals were subjected to regular vaccinations autologous IL-18 and IL-12-transfected tumor cells, respectively.
A comparison has been made of the effect of CA4 and CA4 prodrug with regard to tumor inhibitory effects when used as sole therapy and when combined with immunomodulatory gene therapy. As represented in FIG. 5, wild-type (BN7005-H1D2) colon cancer cells were inoculated intrahepatically and treatment with CA4 and CA4P began on day 7 (2 mg/kg 6 days a week), when the tumors were macroscopically visible. On day 9, 16 and 23, vaccinations occurred using BN7005-H1D2 cells transfected with ILI8 and IL-12, respectively.

[2] = cited from earlier work
[3] = test system: BT4Cn tumor blood vessels; assay: Tumor vascular shut-down, open tumor blood vessels 24 h after CA4P (FIG. 2B); assay type: in vivo, rat
Description: FIG. 2B illustrates the percentage of open tumor blood vessels in an excised tumor 24 hours after administration of various doses of CA4P to a BT4Cn tumor bearing rat.
Results of in vitro studies indicate that the dose of Combretastatin A4 Prodrug that is administered is critical for obtaining a specific immunological effect. The specific immunomodulatory properties of CA4P are only observed at a low dosage, whereas higher doses fail to remove the immunosuppressive effects of the established tumor or induce suppression of lymphocyte activity. […] Proliferation of spleen immune cells was monitored by 3-H-thymidine incorporation (CPM) after 5 days incubation. […] An analysis of tumor pathology was performed on BT4Cn tumor-bearing rats when the tumor had growth to a size of 300 mm^3. Rats received single intraperitoneal injections of various doses of CA4P. Twenty-four hours later they were injected with 0.25 ml of Fluo-Spheres bead in the tail vein and sacrificed after 3 min. Tumors were removed and prepared for cryosection. Eight μm cryosections were examined directly in a fluorescence microscope and vessel volume was determined (Springer, MP., Ip, TK., and Blau, HM). Angiogenesis monitored by perfusion with space-filling microbead suspension (Mol. Ther. 1: 82-87, 2000). […] Thus in a preferred embodiment, the dose at which CA4P is administered to achieve a desired immune enhancing effect without vascular shutdown is less than 5 mg/kg.

[4] = test system: BN7005-H1D2 colon cancer cells; assay: Tumor growth with IL-18/IFN-γ vaccination plus CA4P and/or L-NAME (FIG. 6); assay type: in vivo, rat
Description: FIG. 6 illustrates enhancement of the therapeutic effect of vaccination with IL-18/IFN-γ producing tumor transfectant […] cells by concurrent treatment with low dose combretastatin-A4 prodrug and/or L-NAME. Mean tumor volume±SEM is indicated. Significance of differences compared to the PBS control was evaluated by the Student's t test.
Four groups of 6 rats each were inoculated intrahepatically with 1×10^5 wild type colon cancer cells (BN7005-H1D2) on day 0. Drug treatment was initiated on day 7, when the tumor was macroscopically visible as a small nodule, and was repeated 5 days a week. CA4-P was administered i.p. at a dose of 5 mg/kg and L-NAME by gavage at a dose of 48 mg/rat. Vaccination was given twice i.p. on day 10.and 17 with 2×10^6 tumor cells producing IL-18 and IFN-γ, respectively. No drug treatment was given on the day of vaccination and the day after. On day 28 all animals were laparotomized and tumor diameters measured (the longest diameter (a) and the one perpendicular to the first (b) and tumor volume calculated according to the formula 0.4×a×b×b.
Referring to FIG. 6, wild-type (BN7005-H1D2) colon cancer cells were inoculated intrahepatically and combretastatin A4 prodrug treatment began daily on day 7 when the tumors were macroscopically visible. L-NAME, a well known NO inhibitor and effective antitumor agent, was also administered daily. On day 10 and 17 vaccination occurred using BN7005-H1D2 cells transfected with IL-18/IFN-gamma. […] One likely explanation was that both L-NAME and Combretastatin A4 were doing the same thing; i.e. inhibiting the production of proinflammatory cytokines that cause immune suppression.

[5] = test system: colon carcinoma H1D2-WT cells; assay: Intrahepatic growth of colon carcinoma H1D2-WT, tumor volume after 4 weeks (Table 2); assay type: in vivo, rat
Description: Table 2 is a summary of intrahepatic growth of colon carcinoma H1D2-WT cells treated with low dose CA4P alone or in combination with immunomodulatory gene therapy, and with or without additional inhibitor. Tumor growth was initiated by inoculation beneath the liver capsule with 1×10^5 in vitro cultured BN7005-H1D2 wild type cells suspended in 50 μl RPMI medium. Drug administration (CA4P, L-NAME, Indomethacin) was initiated after 7-8 days when the tumor was macroscopically visible. CA4P was given intraperitoneally, 5 days a week. L-NAME was given by gavage twice a week on the day of immunization and the day after. Indomethacin was given by gavage 48 h after vaccination at a dose of 0.33 mg/kg. Immunization was performed by intraperitoneal administration on day 10 and day 17 using BN7005-H1D2 cells transfected with IL-18 or a mixture of IL-18 and IL-12 transfectants (2-3×10^6 viable cells per rat).
Wild-type (BN7005-H1D2) colon cancer cells (1×10^5 cells) were inoculated intrahepatically and CA4P drug treatment (2 and 5 mg/kg) began daily when the tumors were macroscopically visible. On day 10 and 17, vaccinations were administered intraperitoneally using […] cells transfected with IL-18 transfected cells or mixtures of IL-18 and IL-12 transfected cells (2-3×10^6 viable cells per rat). L-NAME and Indomethacin were also administered by gavage 48 h after vaccination at a dose of 0.33 mg/kg.

[6] = CA4-P 2 mg/kg alone, no L-NAME, no immunization
[7] = CA4-P 2 mg/kg i.p. 5 days a week, no L-NAME, with immunization, phosphate disodium salt
[8] = CA4-P 2 mg/kg, with L-NAME gavage, with immunization
[9] = CA4-P 5 mg/kg, with L-NAME gavage, with immunization, phosphate disodium salt

COc1ccc(/C=C\c2cc(OC)c(OC)c(OC)c2)cc1OP(=O)([O-])[O-].[Na+].[Na+] [CA4P, CA4 phosphate disodium salt]
Tumor inhibitory effect ([1]; 2 mg/kg 6 days a week as sole therapy): no significant effect as sole therapy
Tumor inhibitory effect ([1]; 2 mg/kg combined with vaccination (IL-18 and IL-12 transfected tumor cells)): significant tumor inhibitory effects
Half-life in vivo [2]: less than 15 min
Vascular shutdown ([3]; 2 mg/kg): no vascular shut down could be observed
Vascular shutdown ([3]; doses below 4 mg/kg, single i.p. injection, 24 h): no significant vascular shutdown
Toxicity to microvessels and immune effect ([3]; higher doses, 4-100 mg/kg in the rat): toxic to microvessels and immunosuppressive
Enhancement by combining L-NAME with combretastatin A4 prodrug ([4]; CA4-P 5 mg/kg + L-NAME 48 mg/rat + vaccination): only a small enhancement
Tumor growth compared to the PBS group ([4]; CA4P 5 mg/kg i.p. + vaccination with IL-18/IFN-γ producing tumor cells, day 28): inhibited the tumor growth significantly
Tumor volume after 4 weeks, Mean [5, 6]: 3834 mm^3
Tumor volume after 4 weeks, Median [5, 6]: 4037 mm^3
Tumor volume after 4 weeks, Mean [5, 7]: 3918 mm^3 and 5755 mm^3 and 5135 mm^3 and 3698 mm^3
Tumor volume after 4 weeks, Median [5, 7]: 3780 mm^3 and 6195 mm^3 and 4275 mm^3 and 3393 mm^3
Tumor volume after 4 weeks, Median ([5]; CA4-P 2 mg/kg, with L-NAME (+Indomethacin 0.33 mg/kg), with immunization, phosphate disodium salt): 2867 mm^3 and 1463 mm^3 and 1962 mm^3
Tumor volume after 4 weeks, Mean [5, 8]: 5064 mm^3
Tumor volume after 4 weeks, Median [5, 8]: 4792 mm^3
Tumor volume after 4 weeks, Mean [5, 9]: 512 mm^3 and 561 mm^3
Tumor volume after 4 weeks, Median [5, 9]: 426 mm^3 and 367 mm^3
